Legend:
Assay type in all cases: in vivo
[1] = tested on: Echinochloa crus-galli var. formosensis; test: Test Example 1: herbicidal effect test by soil application in paddy rice; details: 120 g active ingredient per 10 ares, applied immediately after sowing, flooded pots, 14 days after application; for pest or weed control at 1200 g/ha: Echinochloa crus-galli, soil, 336 h, read-out: weed inhibition rate
In short: (§1)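 Pre-emergence paddy treatment: diluted emulsifiable concentrate applied by dropper at 120 g a.i./10 ares immediately after sowing. Seeds (30 per species, 0–1 cm deep) in fertilized, puddled paddy soil kept under ~3 cm flood in a glass greenhouse.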

Scirpus juncoides [2] = test: as above; details: 120 g active ingredient per 10 ares, applied immediately after sowing, flooded pots, 14 days after application; for pest or weed control at 1200 g/ha: Schoenoplectiella juncoides, soil, 336 h, read-out: weed inhibition rate
In short: as §1

Digitaria ciliaris [3] = test: Test Example 4: herbicidal effect test by stem and leaf treatment in upland field; details: Digitaria ciliaris; 120 g per 10 ares; sprayed seven days after sowing, upland soil; 14 days after application; read-out: weed inhibition rate
[4] = tested on: Echinochloa crus-galli var. formosensis; test: Test Example 6: herbicidal effect test by application during growth period of paddy rice (low dose); details: Echinochloa crus-galli; 7.5 g per 10 ares; applied seven days after sowing, flooded pots; 14 days after application; read-out: weed inhibition rate
In short: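 Formulated compound, diluted in water, was dropped onto flooded pots seven days post-sowing at 7.5 g a.i. per 10 ares. Seeds had been sown 0-1 cm deep in puddled paddy soil under ~3 cm water in a glass greenhouse. Inhibition (%) assessed at 14 days; duplicate pots.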

[5] = tested on: Echinochloa crus-galli var. formosensis; test: Test Example 5: herbicidal effect test by soil application in paddy rice (low dose); details: Echinochloa crus-galli, soil, 336 h; 7.5 g per 10 ares; applied immediately after sowing, flooded pots; 14 days after application; read-out: weed inhibition rate
In short: (§2)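 Paddy-soil pots, weeds sown 0–1 cm deep and flooded to about 3 cm in a greenhouse. Emulsifiable concentrate diluted in water and dropped in right after sowing at 7.5 g active ingredient per 10 ares. Duplicates; effect scored 14 days after application.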

Echinochloa crus-galli [6] = test: Test Example 4: herbicidal effect test by stem and leaf treatment in upland field; details: Echinochloa crus-galli; 120 g per 10 ares; sprayed seven days after sowing, upland soil; 14 days after application; read-out: weed inhibition rate
Monochoria vaginalis = test: Test Example 5: herbicidal effect test by soil application in paddy rice (low dose); details: Pontederia vaginalis, 336 h, 7.5 g per 10 ares, applied immediately after sowing, flooded pots, 14 days after application, read-out: weed inhibition rate
In short: as §2

Scirpus juncoides [7] = test: as above; details: Schoenoplectiella juncoides, 336 h, 7.5 g per 10 ares, applied immediately after sowing, flooded pots, 14 days after application, read-out: weed inhibition rate
In short: as §2

Digitaria ciliaris [8] = test: Test Example 7: herbicidal effect test by soil application in upland field (low dose); details: Digitaria ciliaris, 7.5 g per 10 ares, sprayed one day after sowing, 14 days after application, read-out: weed inhibition rate
In short: (§3)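 Upland alluvial loam pots, seeds mixed into top 1 cm of soil; one day after sowing, diluted emulsifiable concentrate sprayed on soil at 100 L/10 a, giving 7.5 g active ingredient/10 a. Duplicate pots; weed inhibition rate (%) scored 14 days after application.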

Echinochloa crus-galli [9] = test: as above; details: Echinochloa crus-galli, 7.5 g per 10 ares, sprayed one day after sowing, 14 days after application, read-out: weed inhibition rate
In short: as §3

CC(C)C1C[C@]2(C)O[C@@]1(C(C)C)C[C@H]2OCc1ccccc1F (stereo partly drawn) [1-133, (1S,2R,4R)-2-[(2-fluorobenzyl)oxy]-4,5-isopropyl-1-methyl-7-oxabicyclo[2.2.1]heptane]
≥ 80%: weed inhibition rate [1] | weed inhibition rate (Scirpus juncoides [2]) | inhibition at 1200 g/ha (Digitaria ciliaris [3]) | inhibition at 75 g/ha [4] | inhibition at 75 g/ha [5] | inhibition at 1200 g/ha (Echinochloa crus-galli [6]) | inhibition at 75 g/ha (Monochoria vaginalis) | inhibition at 75 g/ha (Scirpus juncoides [7]) | inhibition at 75 g/ha (Digitaria ciliaris [8]) | inhibition at 75 g/ha (Echinochloa crus-galli [9])

CC(C)[C@]12C[C@@H](OCc3ccccc3F)[C@](C)(CC1=O)O2 [2-9, (1R,4S,5R)-5-((2-fluorobenzyl)oxy)-1-isopropyl-4-methyl-7-oxabicyclo[2.2.1]heptan-2-one]
≥ 80%: pest or weed control at 1200 g/ha [1] | pest or weed control at 1200 g/ha (Scirpus juncoides [2]) | inhibition at 1200 g/ha (Digitaria ciliaris [3]) | inhibition at 75 g/ha [4] | inhibition at 75 g/ha [5] | inhibition at 1200 g/ha (Echinochloa crus-galli [6]) | inhibition at 75 g/ha (Monochoria vaginalis) | inhibition at 75 g/ha (Scirpus juncoides [7]) | inhibition at 75 g/ha (Digitaria ciliaris [8]) | inhibition at 75 g/ha (Echinochloa crus-galli [9])

Cc1cccc(F)c1CO[C@@H]1C[C@]2(C(C)C)O[C@@]1(C)CC2=O [2-353, (1R,4S,5R)-5-((2-fluoro-6-methylbenzyl)oxy)-1-isopropyl-4-methyl-7-oxabicyclo[2.2.1]heptan-2-one]
≥ 80%: pest or weed control at 1200 g/ha [1] | pest or weed control at 1200 g/ha (Scirpus juncoides [2]) | inhibition at 1200 g/ha (Digitaria ciliaris [3]) | inhibition at 75 g/ha [4] | inhibition at 75 g/ha [5] | inhibition at 1200 g/ha (Echinochloa crus-galli [6]) | inhibition at 75 g/ha (Monochoria vaginalis) | inhibition at 75 g/ha (Scirpus juncoides [7]) | inhibition at 75 g/ha (Digitaria ciliaris [8]) | inhibition at 75 g/ha (Echinochloa crus-galli [9])

Cc1ccccc1CO[C@@H]1C[C@]2(C(C)C)O[C@@]1(C)C[C@@H]2O [1-24, (1R,2S,4S,5R)-1-isopropyl-4-methyl-5-((2-methylbenzyl)oxy)-7-oxabicyclo[2.2.1]heptan-2-ol]
≥ 80%: pest or weed control at 1200 g/ha [1] | pest or weed control at 1200 g/ha (Scirpus juncoides [2]) | inhibition at 1200 g/ha (Digitaria ciliaris [3]) | inhibition at 75 g/ha [4] | inhibition at 75 g/ha [5] | inhibition at 1200 g/ha (Echinochloa crus-galli [6]) | inhibition at 75 g/ha (Monochoria vaginalis) | inhibition at 75 g/ha (Scirpus juncoides [7]) | inhibition at 75 g/ha (Digitaria ciliaris [8]) | inhibition at 75 g/ha (Echinochloa crus-galli [9])

CC(C)[C@]12C[C@@H](OCc3ccccc3F)[C@](C)(C[C@@H]1OCC1CC1)O2 [1-1603, (1S,2R,4R,5S)-5-(cyclopropylmethoxy)-2-[(2-fluorophenyl)methoxy]-1-methyl-4-isopropyl-7-oxabicyclo[2.2.1]heptane]
≥ 80%: pest or weed control at 1200 g/ha [1] | pest or weed control at 1200 g/ha (Scirpus juncoides [2]) | inhibition at 1200 g/ha (Digitaria ciliaris [3]) | inhibition at 75 g/ha [4] | inhibition at 75 g/ha [5] | inhibition at 1200 g/ha (Echinochloa crus-galli [6]) | inhibition at 75 g/ha (Monochoria vaginalis) | inhibition at 75 g/ha (Scirpus juncoides [7]) | inhibition at 75 g/ha (Digitaria ciliaris [8]) | inhibition at 75 g/ha (Echinochloa crus-galli [9])

CC(C)[C@]12C[C@@H](OCc3c(F)cccc3Br)[C@](C)(CC1=O)O2 [2-355, (1R,4S,5R)-5-((2-bromo-6-fluorobenzyl)oxy)-1-isopropyl-4-methyl-7-oxabicyclo[2.2.1]heptan-2-one]
≥ 80%: pest or weed control at 1200 g/ha [1] | pest or weed control at 1200 g/ha (Scirpus juncoides [2]) | inhibition at 1200 g/ha (Digitaria ciliaris [3]) | inhibition at 75 g/ha [4] | inhibition at 75 g/ha [5] | inhibition at 1200 g/ha (Echinochloa crus-galli [6]) | inhibition at 75 g/ha (Monochoria vaginalis) | inhibition at 75 g/ha (Scirpus juncoides [7]) | inhibition at 75 g/ha (Digitaria ciliaris [8]) | inhibition at 75 g/ha (Echinochloa crus-galli [9])

CC(C)[C@]12C[C@@H](OCc3c(F)cccc3F)[C@](C)(CC1=O)O2 [2-20, (1R,4S,5R)-5-((2,6-difluorobenzyl)oxy)-1-isopropyl-4-methyl-7-oxabicyclo[2.2.1]heptan-2-one]
≥ 80%: pest or weed control at 1200 g/ha [1] | pest or weed control at 1200 g/ha (Scirpus juncoides [2]) | inhibition at 1200 g/ha (Digitaria ciliaris [3]) | inhibition at 75 g/ha [4] | inhibition at 75 g/ha [5] | inhibition at 1200 g/ha (Echinochloa crus-galli [6]) | inhibition at 75 g/ha (Monochoria vaginalis) | inhibition at 75 g/ha (Scirpus juncoides [7]) | inhibition at 75 g/ha (Digitaria ciliaris [8]) | inhibition at 75 g/ha (Echinochloa crus-galli [9])

From EP4707280A1, “1,4-CINEOLE DERIVATIVE AND INTERMEDIATE THEREOF, HERBICIDE CONTAINING SAID DERIVATIVE AS ACTIVE INGREDIENT, METHOD FOR USING HERBICIDE, AND METHOD FOR PREPARING AGROCHEMICAL COMPOSITION” (HOKKO CHEMICAL INDUSTRY CO., LTD., priority 2023, dated 2024)
